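Growth conditions: 96-well plates. Treatment: test compound, 48 hours, 5 concentrations. Analysis: linear interpolation between bracketing concentrations; unreached endpoints set to highest concentration. GI50 = concentration required for 50% inhibition of growth. TGI denotes the concentration required for complete inhibition of growth.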
What was measured:
Experiment in all cases: NCI-60 cell line screen, 48 h
IGROV1 ovarian = tested on: IGROV1 ovarian
SK-OV-3 ovarian = tested on: SK-OV-3 ovarian
UACC-257 melanoma = tested on: UACC-257 melanoma
SF-539 CNS = tested on: SF-539 CNS
HOP-92 NSCLC = tested on: HOP-92 NSCLC
OVCAR-3 ovarian = tested on: OVCAR-3 ovarian
M14 melanoma = tested on: M14 melanoma
MDA-N = tested on: MDA-N
TK-10 renal = tested on: TK-10 renal
KM12 colon = tested on: KM12 colon

Compound | TGI (IGROV1 ovarian) [µM] | TGI (SK-OV-3 ovarian) [µM] | TGI (UACC-257 melanoma) [µM] | TGI (SF-539 CNS) [µM] | TGI (HOP-92 NSCLC) [µM] | TGI (OVCAR-3 ovarian) [µM] | TGI (M14 melanoma) [µM] | TGI (MDA-N) [µM] | TGI (TK-10 renal) [µM] | TGI (KM12 colon) [µM] | GI50 (HOP-92 NSCLC) [µM] | GI50 (MDA-N) [µM] | GI50 (SK-OV-3 ovarian) [µM] | GI50 (SF-539 CNS) [µM] | GI50 (OVCAR-3 ovarian) [µM] | GI50 (M14 melanoma) [µM] | GI50 (KM12 colon) [µM]
[Se]=P(c1ccccc1)(c1ccccc1)c1ccc(C(c2ccccc2)=P(c2ccccc2)(c2ccccc2)c2ccccc2)cc1 | 11.5 | 12.1 | 5.59 | 17.8 | 1.91 | 4.22 | 24.5 | 4.57 | 6.88 | 1.8 | – | – | – | – | – | – | –
O=C(CN1CCN(Cc2ccccc2)CC1)N1CCCn2c1nc1ccccc1c2=O | > 100 | > 100 | > 100 | > 100 | 52.5 | > 100 | > 100 | > 100 | > 100 | > 100 | – | – | – | – | – | – | –
COc1ccc(S(=O)(=O)O)cc1-n1nc(C(=O)Nc2ccccc2)n[n+]1-c1cc(S(=O)(=O)[O-])ccc1OC | > 100 | > 100 | – | > 100 | – | > 100 | > 100 | > 100 | > 100 | > 100 | – | – | – | – | – | – | –
COC(=O)C(CCc1ccccc1I)C1=CCC2(CC1)OCCO2 (configuration not stated) | > 100 | > 100 | > 100 | > 100 | > 100 | > 100 | > 100 | 94.3 | > 100 | > 100 | – | – | – | – | – | – | –
O=C1CSC(/C(=C\c2ccc(Cl)cc2)c2nc3ccccc3[nH]2)=N1 | 22.4 | 24.1 | 34.7 | 2.06 | 25.1 | 20.9 | 40.3 | 37.6 | 24.8 | 28.5 | – | – | – | – | – | – | –
O=c1[nH]nc(-c2ccccc2)n1/N=C/c1c[nH]c2ccccc12 | > 100 | > 100 | > 100 | > 100 | > 100 | > 100 | > 100 | > 100 | 75.6 | > 100 | – | – | – | – | – | – | –
O=C(NCCC(F)(F)C(F)(F)C(F)(F)C(F)(F)F)NC1OC(CO)C(O)C(O)C1O (configuration not stated) | > 100 | > 100 | > 100 | > 100 | > 100 | > 100 | > 100 | > 100 | > 100 | > 100 | – | – | – | – | – | – | –
CCOC(=O)Oc1cc2c(c(OC)c1OC)-c1ccc(SC)c(=O)cc1C(NC(=O)C(F)(F)F)CC2 (configuration not stated) | 0.149 | – | 37.9 | – | 0.306 | – | 38.8 | < 0.001 | – | – | – | – | – | – | – | – | –
CCCCc1c(C(=O)OC(C)(C)C)cc(C#Cc2cc(C(=O)OC(C)(C)C)c(CCCC)c(C(=O)OC(C)(C)C)c2)cc1C(=O)OC(C)(C)C | > 100 | > 100 | > 100 | – | > 100 | > 100 | > 100 | > 100 | > 100 | > 100 | – | – | – | – | – | – | –
O=c1[nH]nc(-c2ccccc2)n1/N=C/c1ccncc1 | > 100 | – | > 100 | > 100 | > 100 | > 100 | > 100 | > 100 | > 100 | > 100 | – | – | – | – | – | – | –
CCOC(=O)c1c(Br)c(-c2ccc(Br)cc2)c(Br)n1C | > 100 | > 100 | 78 | 73.2 | 55.7 | 38.7 | 63.3 | 32.5 | > 100 | 26.4 | 14.3 | 5.64 | – | – | – | – | –
CCOC(=O)c1cc(C(=O)c2ccccc2)n2nc(-c3ccc(Cl)cc3)ccc12 | 38.8 | 34.5 | 97.1 | – | 60.5 | – | 90.7 | > 100 | 47.8 | 53.5 | – | – | – | – | – | – | –
Clc1ccc(Cc2nc3ccc(CCN4CCN(c5ccccc5)CC4)cc3[nH]2)cc1 | 90.6 | 38.4 | 18.8 | 33.5 | 73.8 | 27 | 19.2 | 30.6 | 27 | 24.1 | – | – | – | – | – | – | –
NC(=O)c1nnc2cc(F)ccc2c1N | > 100 | > 100 | > 100 | > 100 | – | > 100 | > 100 | > 100 | > 100 | > 100 | – | – | – | – | – | – | –
CC(C)=CC(=O)O[C@H]1C(=O)O[C@@H]2C[C@H]3[C@H](C)C(=O)C(O[C@@H]4O[C@H](CO)[C@@H](O)[C@H](O)[C@H]4O)=C[C@]3(C)[C@H]3[C@@H](O)[C@H](O)[C@]4(C(=O)O)OC[C@]32[C@@H]14 | > 100 | > 100 | > 100 | 67.1 | > 100 | 52.1 | > 100 | > 100 | > 100 | > 100 | 31.4 | – | > 100 | 26.6 | 20.3 | 32.1 | 49.1
CC(C)SC(C)(NC(=O)C1C(C)(C)CCC1(C)C)C(=O)O (configuration not stated) | – | > 100 | – | > 100 | > 100 | – | > 100 | > 100 | > 100 | – | – | – | – | – | – | – | –
COc1cccc(-c2ccc3c4c2O[C@H]2c5[nH]c6ccccc6c5C[C@@]5(O)[C@@H](C3)N(CC3CC3)CC[C@]425)c1 | 3.04 | – | 3.2 | 3.51 | 3.04 | 3.3 | 3.27 | 3.28 | 3.48 | 3.26 | – | – | – | – | – | – | –
COc1ccc(O[C@H](COCc2ccccc2)C[C@@H]2COC(C)(C)O2)cc1 | > 100 | > 100 | > 100 | > 100 | – | > 100 | > 100 | > 100 | > 100 | > 100 | – | – | – | – | – | – | –
COc1ccc2cc1Oc1ccc(cc1)C(Sc1ccccc1)CCOC(=O)CC2 (configuration not stated) | > 100 | > 100 | > 100 | > 100 | – | > 100 | > 100 | > 100 | > 100 | > 100 | – | – | – | – | – | – | –
Cn1c(=O)c2c(nc3n(Cc4ccccc4)c(=O)c(NCCBr)cn23)n(C)c1=O | > 100 | 51.9 | > 100 | – | 36.2 | 66.7 | > 100 | > 100 | 44.5 | > 100 | – | – | – | – | – | – | –
O=[N+]([O-])/C(C(Cl)=C(Cl)Cl)=C1\NCCO1 | > 100 | > 100 | > 100 | > 100 | – | > 100 | > 100 | > 100 | > 100 | > 100 | – | – | – | – | – | – | –

Reference: PubChem BioAssay (NCI)
